Measured values published in ChEMBL document CHEMBL4265893, “Design, synthesis and biological evaluation of ring A modified 11-keto-boswellic acid derivatives as Pin1 inhibitors with remarkable anti-prostate cancer activity” (Bioorg Med Chem Lett, 2018).

Assays:
[1] = molecular target: T1, Peptidyl-prolyl cis-trans isomerase NIMA-interacting 1 (Homo sapiens, UniProt Q13526); assay: Inhibition of recombinant N-terminal His6-tagged human Pin1 at 10 uM using Suc-Ala-Glu-cis-Pro-Phe-4-nitroanilide as substrate preincubated for 30 mins followed by substrate addition measured for 90 secs
PC-3 [2] = assay: Antiproliferative activity against human PC3 cells after 96 hrs by MTT assay; type: functional; conditions: PC-3, 96 h
[3] = molecular target: T1, Peptidyl-prolyl cis-trans isomerase NIMA-interacting 1; assay: Inhibition of recombinant N-terminal His6-tagged human Pin1 using Suc-Ala-Glu-cis-Pro-Phe-4-nitroanilide as substrate preincubated for 30 mins followed by substrate addition measured for 90 secs
PC-3 [4] = assay: Induction of apoptosis in human PC3 cells assessed as downregulation of Cyclin D1 expression after 24 hrs by Western blot analysis; type: functional, cell-based
PC-3 [5] = assay: Cell cycle arrest in human PC3 cells assessed as accumulation at G0/G1 phase at 1 uM after 24 hrs by RNase/propidium iodide staining-based flow cytometric analysis (reference value: 55.03%); type: functional
PC-3 [6] = assay: Cell cycle arrest in human PC3 cells assessed as accumulation at G0/G1 phase at 0.25 uM after 24 hrs by RNase/propidium iodide staining-based flow cytometric analysis (reference value: 55.03%); type: functional
PC-3 [7] = assay: Cell cycle arrest in human PC3 cells assessed as accumulation at G0/G1 phase at 0.5 uM after 24 hrs by RNase/propidium iodide staining-based flow cytometric analysis (reference value: 55.03%); type: functional

T1 sequence (Q13526 whole entry): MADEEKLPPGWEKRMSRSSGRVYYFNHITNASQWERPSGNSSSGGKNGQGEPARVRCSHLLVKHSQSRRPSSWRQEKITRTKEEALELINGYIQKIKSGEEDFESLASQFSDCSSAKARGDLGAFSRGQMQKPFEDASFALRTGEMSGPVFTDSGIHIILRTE

inhibition [1] [%] | GI50 (PC-3 [2]) [µM] | IC50 [3] [µM] | Compound | Activity (PC-3 [4]) | Activity (PC-3 [5]) [%] | Activity (PC-3 [6]) [%] | Activity (PC-3 [7]) [%]
35 | 18.5 | – | C[C@H]1[C@H](C)CC[C@]2(C)CC[C@]3(C)C(=CC(=O)[C@@H]4[C@@]5(C)CC[C@@H](OC(=O)COc6ccccc6)[C@](C)(C(=O)O)[C@@H]5CC[C@]43C)[C@H]12 | – | – | – | –
66 | 7.8 | – | C[C@H]1[C@H](C)CC[C@]2(C)CC[C@]3(C)C(=CC(=O)[C@@H]4[C@@]5(C)CC[C@@H](OC(=O)COc6ccc(-c7cc(-c8ccccc8)[nH]n7)cc6)[C@](C)(C(=O)O)[C@@H]5CC[C@]43C)[C@H]12 | – | – | – | –
97 | 1.82 | 0.46 | C[C@H]1[C@H](C)CC[C@]2(C)CC[C@]3(C)C(=CC(=O)[C@@H]4[C@@]5(C)C/C(=C\C(=O)O)C(=O)[C@](C)(C(=O)OCc6ccccc6)[C@@H]5CC[C@]43C)[C@H]12 | Dose-dependent effect | 72 | 62.35 | 67.62
29 | 26.9 | – | C[C@H]1[C@H](C)CC[C@]2(C)CC[C@]3(C)C(=CC(=O)[C@@H]4[C@@]5(C)Cc6c(C(=O)O)noc6[C@](C)(C(=O)OCc6ccccc6)[C@@H]5CC[C@]43C)[C@H]12 | – | – | – | –
40 | 32.1 | – | C[C@H]1[C@H](C)CC[C@]2(C)CC[C@]3(C)C(=CC(=O)[C@@H]4[C@@]5(C)C/C(=C\c6ccc(C(=O)O)cc6)C(=O)[C@](C)(C(=O)OCc6ccccc6)[C@@H]5CC[C@]43C)[C@H]12 | – | – | – | –
46 | 12.1 | – | C[C@H]1[C@H](C)CC[C@]2(C)CC[C@]3(C)C(=CC(=O)[C@@H]4[C@@]5(C)CC[C@@H](OC(=O)CNc6ccccc6)[C@](C)(C(=O)O)[C@@H]5CC[C@]43C)[C@H]12 | – | – | – | –
56 | 37.6 | – | COC(=O)[C@@]1(C)c2[nH]nc(C(=O)O)c2C[C@@]2(C)[C@H]1CC[C@]1(C)[C@@H]2C(=O)C=C2[C@@H]3[C@@H](C)[C@H](C)CC[C@]3(C)CC[C@]21C | – | – | – | –
37 | > 50 | – | C[C@H]1[C@H](C)CC[C@]2(C)CC[C@]3(C)C(=CC(=O)[C@@H]4[C@@]5(C)C/C(=C\c6ccccc6)C(=O)[C@](C)(C(=O)OCc6ccccc6)[C@@H]5CC[C@]43C)[C@H]12 | – | – | – | –
43 | > 50 | – | COC(=O)[C@@]1(C)C(=O)/C(=C/c2ccc(C(=O)O)cc2)C[C@]2(C)[C@H]3C(=O)C=C4[C@@H]5[C@@H](C)[C@H](C)CC[C@]5(C)CC[C@@]4(C)[C@]3(C)CC[C@@H]12 | – | – | – | –
59 | > 50 | – | C[C@H]1[C@H](C)CC[C@]2(C)CC[C@]3(C)C(=CC(=O)[C@@H]4[C@@]5(C)CC[C@@H](OC(=O)CN(CCO)CCO)[C@](C)(C(=O)O)[C@@H]5CC[C@]43C)[C@H]12 | – | – | – | –
80 | 12.5 | 2.18 | C[C@H]1[C@H](C)CC[C@]2(C)CC[C@]3(C)C(=CC(=O)[C@@H]4[C@@]5(C)CC[C@@H](OC(=O)CN6CCN(c7cccc(C(F)(F)F)c7)CC6)[C@](C)(C(=O)O)[C@@H]5CC[C@]43C)[C@H]12 | – | – | – | –
69 | 15.2 | – | COC(=O)[C@@]1(C)C(=O)/C(=C/c2ccccc2C(=O)O)C[C@]2(C)[C@H]3C(=O)C=C4[C@@H]5[C@@H](C)[C@H](C)CC[C@]5(C)CC[C@@]4(C)[C@]3(C)CC[C@@H]12 | – | – | – | –
49 | > 50 | – | C[C@H]1[C@H](C)CC[C@]2(C)CC[C@]3(C)C(=CC(=O)[C@@H]4[C@@]5(C)CC[C@@H](OC(=O)CN6CCNCC6)[C@](C)(C(=O)O)[C@@H]5CC[C@]43C)[C@H]12 | – | – | – | –
51 | 8 | – | COC(=O)[C@@]1(C)C(=O)/C(=C/C(=O)O)C[C@]2(C)[C@H]3C(=O)C=C4[C@@H]5[C@@H](C)[C@H](C)CC[C@]5(C)CC[C@@]4(C)[C@]3(C)CC[C@@H]12 | – | – | – | –

The remaining lines, values behind:

Compound | inhibition [1] [%] | GI50 (PC-3 [2]) [µM] | IC50 [3] [µM] | Activity (PC-3 [4]) | Activity (PC-3 [5]) [%] | Activity (PC-3 [6]) [%] | Activity (PC-3 [7]) [%]
CC(=O)O[C@@H]1CC[C@@]2(C)[C@@H](CC[C@]3(C)[C@@H]2C(=O)C=C2[C@@H]4[C@@H](C)[C@H](C)CC[C@]4(C)CC[C@]23C)[C@@]1(C)C(=O)O [AKBA] | 26 | 31.9 | 50.4 | – | – | – | –
C[C@H]1[C@H](C)CC[C@]2(C)CC[C@]3(C)C(=CC(=O)[C@@H]4[C@@]5(C)CC[C@@H](OC(=O)COc6ccc(Oc7ccccc7)cc6)[C@](C)(C(=O)O)[C@@H]5CC[C@]43C)[C@H]12 | 90 | 12.5 | 1.58 | – | – | – | –
C[C@H]1[C@H](C)CC[C@]2(C)CC[C@]3(C)C(=CC(=O)[C@@H]4[C@@]5(C)CC[C@@H](OC(=O)CN(C)c6ccccc6)[C@](C)(C(=O)O)[C@@H]5CC[C@]43C)[C@H]12 | 94 | 13.7 | 1.27 | – | – | – | –
CC(=O)N1N=C(c2ccc(OCC(=O)O[C@@H]3CC[C@@]4(C)[C@@H](CC[C@]5(C)[C@@H]4C(=O)C=C4[C@@H]6[C@@H](C)[C@H](C)CC[C@]6(C)CC[C@]45C)[C@@]3(C)C(=O)O)cc2)CC1c1ccccc1 (some centres undefined) | 32 | 9.42 | – | – | – | – | –
C[C@H]1[C@H](C)CC[C@]2(C)CC[C@]3(C)C(=CC(=O)[C@@H]4[C@@]5(C)CC[C@@H](OC(=O)COc6ccc(C(=O)/C=C/c7ccccc7)cc6)[C@](C)(C(=O)O)[C@@H]5CC[C@]43C)[C@H]12 | 95 | 8.84 | 0.97 | – | – | – | –
CC1CCN(CC(=O)O[C@@H]2CC[C@@]3(C)[C@@H](CC[C@]4(C)[C@@H]3C(=O)C=C3[C@@H]5[C@@H](C)[C@H](C)CC[C@]5(C)CC[C@]34C)[C@@]2(C)C(=O)O)CC1 | 78 | 15.6 | – | – | – | – | –
C[C@H]1[C@H](C)CC[C@]2(C)CC[C@]3(C)C(=CC(=O)[C@@H]4[C@@]5(C)C/C(=C\c6ccccc6C(=O)O)C(=O)[C@](C)(C(=O)OCc6ccccc6)[C@@H]5CC[C@]43C)[C@H]12 | 94 | 3.29 | 0.68 | – | – | – | –
C[C@H]1[C@H](C)CC[C@]2(C)CC[C@]3(C)C(=CC(=O)[C@@H]4[C@@]5(C)CC[C@@H](OC(=O)CN6CCOCC6)[C@](C)(C(=O)O)[C@@H]5CC[C@]43C)[C@H]12 | 78 | 10.6 | – | – | – | – | –
COC(=O)[C@@]1(C)c2onc(C(=O)O)c2C[C@@]2(C)[C@H]1CC[C@]1(C)[C@@H]2C(=O)C=C2[C@@H]3[C@@H](C)[C@H](C)CC[C@]3(C)CC[C@]21C | 41 | 37.6 | – | – | – | – | –
C[C@H]1[C@H](C)CC[C@]2(C)CC[C@]3(C)C(=CC(=O)[C@@H]4[C@@]5(C)CC[C@@H](OC(=O)CN6CCN(C)CC6)[C@](C)(C(=O)O)[C@@H]5CC[C@]43C)[C@H]12 | 24 | 37.9 | – | – | – | – | –
COc1ccccc1/C=C1\C[C@]2(C)[C@H]3C(=O)C=C4[C@@H]5[C@@H](C)[C@H](C)CC[C@]5(C)CC[C@@]4(C)[C@]3(C)CC[C@H]2[C@@](C)(C(=O)OCc2ccccc2)C1=O | 57 | > 50 | – | – | – | – | –
C[C@H]1[C@H](C)CC[C@]2(C)CC[C@]3(C)C(=CC(=O)[C@@H]4[C@@]5(C)CC[C@@H](OC(=O)CN6CCCCC6)[C@](C)(C(=O)O)[C@@H]5CC[C@]43C)[C@H]12 | 95 | 11.6 | 1.01 | – | – | – | –
CCN(CC)CC(=O)O[C@@H]1CC[C@@]2(C)[C@@H](CC[C@]3(C)[C@@H]2C(=O)C=C2[C@@H]4[C@@H](C)[C@H](C)CC[C@]4(C)CC[C@]23C)[C@@]1(C)C(=O)O | 58 | 10.7 | – | – | – | – | –
C[C@H]1[C@H](C)CC[C@]2(C)CC[C@]3(C)C(=CC(=O)[C@@H]4[C@@]5(C)C/C(=C\C(=O)O)C(=O)[C@](C)(C(=O)N6CCOCC6)[C@@H]5CC[C@]43C)[C@H]12 | 82 | 2.78 | 2.68 | – | – | – | –
C[C@H]1[C@H](C)CC[C@]2(C)CC[C@]3(C)C(=CC(=O)[C@@H]4[C@@]5(C)C/C(=C\C(=O)O)C(=O)[C@](C)(C(=O)N6CCCCC6)[C@@H]5CC[C@]43C)[C@H]12 | 89 | 7.11 | 0.55 | – | – | – | –
C[C@H]1[C@H](C)CC[C@]2(C)CC[C@]3(C)C(=CC(=O)[C@@H]4[C@@]5(C)Cc6c(C(=O)O)n[nH]c6[C@](C)(C(=O)OCc6ccccc6)[C@@H]5CC[C@]43C)[C@H]12 | 31 | 22.7 | – | – | – | – | –
